Test results reported in ChEMBL document CHEMBL5321262, “Antiviral Activity of Cannabidiolic Acid and Its Methyl Ester against SARS-CoV-2” (J Nat Prod, 2023).
Activity calls are given as the source filed them. The calls are words filed in the database; no cut-off is given here.

Tests used:
SARS-CoV-2 [1] = test: Antiviral activity against SARS-CoV-2 variant Omicron BA.3 infected in African green monkey Vero E6 cells assessed as inhibition of virus titers of progeny virus in supernatant at 37.5 uM measured after 72 hrs by CPE assay relative to control; format: functional; conditions: Severe acute respiratory syndrome coronavirus 2, Omicron BA.3, Vero C1008
SARS-CoV-2 [2] = test: Antiviral activity against SARS-CoV-2 variant Omicron BA.1 infected in African green monkey Vero E6 cells assessed as reduction in viral replication at 37.5 uM measured at 72 hrs post-infection by qRT-PCR analysis; format: functional, organism-based; conditions: Severe acute respiratory syndrome coronavirus 2
SARS-CoV-2 [3] = test: Antiviral activity against SARS-CoV-2 variant Omicron BA.4 infected in African green monkey Vero E6 cells assessed as inhibition of virus titers of progeny virus in supernatant at 37.5 uM measured after 72 hrs by CPE assay relative to control; format: functional; conditions: Severe acute respiratory syndrome coronavirus 2, Omicron BA.4, Vero C1008
SARS-CoV-2 [4] = test: Antiviral activity against SARS-CoV-2 variant Omicron BA.4 infected African green monkey Vero E6 cells assessed as reduction in virus-induced cytopathic effect at 37.5 uM preincubated with virus for 1 hr followed by infection with cells and measured after 72 hrs by microscopic analysis; format: functional, organism-based; conditions: Severe acute respiratory syndrome coronavirus 2, time 73.0 hrs
SARS-CoV-2 [5] = test: Antiviral activity against SARS-CoV-2 variant Omicron BA.4 infected in African green monkey Vero E6 cells assessed as reduction in virus titers of progeny virus in supernatant measured after 72 hrs by CPE assay; format: functional, organism-based; conditions: Severe acute respiratory syndrome coronavirus 2, Omicron BA.4, Vero C1008, 72 h
SARS-CoV-2 [6] = test: Antiviral activity against SARS-CoV-2 variant Omicron BA.4 infected in African green monkey Vero E6 cells assessed as reduction in viral replication at 37.5 uM measured at 72 hrs post-infection by qRT-PCR analysis; format: functional, organism-based; conditions: Severe acute respiratory syndrome coronavirus 2
SARS-CoV-2 [7] = test: Antiviral activity against SARS-CoV-2 variant Omicron BA.3 infected in African green monkey Vero E6 cells assessed as reduction in viral replication at 37.5 uM measured at 72 hrs post-infection by qRT-PCR analysis; format: functional, organism-based; conditions: Severe acute respiratory syndrome coronavirus 2
SARS-CoV-2 [8] = test: Antiviral activity against SARS-CoV-2 variant Omicron BA.5 infected in African green monkey Vero E6 cells assessed as reduction in viral replication at 37.5 uM measured at 72 hrs post-infection by qRT-PCR analysis; format: functional, organism-based; conditions: Severe acute respiratory syndrome coronavirus 2
SARS-CoV-2 [9] = test: Antiviral activity against SARS-CoV-2 variant Delta infected in African green monkey Vero E6 cells assessed as reduction in virus titers of progeny virus in supernatant measured after 72 hrs by CPE assay; format: functional, organism-based; conditions: Severe acute respiratory syndrome coronavirus 2, Delta, Vero C1008, 72 h
SARS-CoV-2 [10] = test: Antiviral activity against SARS-CoV-2 variant Delta infected in African green monkey Vero E6 cells assessed as reduction in viral replication at 37.5 uM measured at 72 hrs post-infection by qRT-PCR analysis; format: functional, organism-based; conditions: Severe acute respiratory syndrome coronavirus 2
SARS-CoV-2 [11] = test: Antiviral activity against SARS-CoV-2 variant Omicron BA.1 infected in African green monkey Vero E6 cells assessed as reduction in virus titers of progeny virus in supernatant measured after 72 hrs by CPE assay; format: functional, organism-based; conditions: Severe acute respiratory syndrome coronavirus 2, Omicron BA.1, Vero C1008, 72 h
SARS-CoV-2 [12] = test: Antiviral activity against SARS-CoV-2 variant Omicron BA.3 infected African green monkey Vero E6 cells assessed as reduction in virus-induced cytopathic effect at 37.5 uM preincubated with virus for 1 hr followed by infection with cells and measured after 72 hrs by microscopic analysis; format: functional, organism-based; conditions: Severe acute respiratory syndrome coronavirus 2, time 73.0 hrs
SARS-CoV-2 [13] = test: Antiviral activity against SARS-CoV-2 variant Omicron BA.5 infected in African green monkey Vero E6 cells assessed as reduction in virus titers of progeny virus in supernatant measured after 72 hrs by CPE assay; format: functional, organism-based; conditions: Severe acute respiratory syndrome coronavirus 2, Omicron BA.5, Vero C1008, 72 h
SARS-CoV-2 [14] = test: Antiviral activity against SARS-CoV-2 variant Omicron BA.1 infected in African green monkey Vero E6 cells assessed as inhibition of virus titers of progeny virus in supernatant at 37.5 uM measured after 72 hrs by CPE assay relative to control; format: functional; conditions: Severe acute respiratory syndrome coronavirus 2, Omicron BA.1, Vero C1008
SARS-CoV-2 [15] = test: Antiviral activity against SARS-CoV-2 variant Omicron BA.1 infected in African green monkey Vero E6 cells assessed as reduction in virus-induced cytopathic effect at 37.5 uM preincubated with virus for 1 hr followed by infection with cells and measured after 72 hrs by microscopic analysis; format: functional, organism-based; conditions: Severe acute respiratory syndrome coronavirus 2, time 73.0 hrs
SARS-CoV-2 [16] = test: Antiviral activity against SARS-CoV-2 variant Omicron BA.2 infected in African green monkey Vero E6 cells assessed as reduction in virus-induced cytopathic effect at 37.5 uM preincubated with virus for 1 hr followed by infection with cells and measured after 72 hrs by microscopic analysis; format: functional, organism-based; conditions: Severe acute respiratory syndrome coronavirus 2, time 73.0 hrs
SARS-CoV-2 [17] = test: Antiviral activity against SARS-CoV-2 variant Omicron BA.5 infected African green monkey Vero E6 cells assessed as reduction in virus-induced cytopathic effect at 37.5 uM preincubated with virus for 1 hr followed by infection with cells and measured after 72 hrs by microscopic analysis; format: functional, organism-based; conditions: Severe acute respiratory syndrome coronavirus 2, time 73.0 hrs
SARS-CoV-2 [18] = test: Antiviral activity against SARS-CoV-2 variant Omicron BA.2 infected in African green monkey Vero E6 cells assessed as inhibition of virus titers of progeny virus in supernatant at 37.5 uM measured after 72 hrs by CPE assay relative to control; format: functional; conditions: Severe acute respiratory syndrome coronavirus 2, Omicron BA.2, Vero C1008
SARS-CoV-2 [19] = test: Antiviral activity against SARS-CoV-2 variant Omicron BA.2 infected in African green monkey Vero E6 cells assessed as reduction in virus titers of progeny virus in supernatant measured after 72 hrs by CPE assay; format: functional, organism-based; conditions: Severe acute respiratory syndrome coronavirus 2, Omicron BA.2, Vero C1008, 72 h
SARS-CoV-2 [20] = test: Antiviral activity against SARS-CoV-2 variant Omicron BA.5 infected in African green monkey Vero E6 cells assessed as inhibition of virus titers of progeny virus in supernatant at 37.5 uM measured after 72 hrs by CPE assay relative to control; format: functional; conditions: Severe acute respiratory syndrome coronavirus 2, Omicron BA.5, Vero C1008
SARS-CoV-2 [21] = test: Antiviral activity against SARS-CoV-2 variant Delta infected in African green monkey Vero E6 cells assessed as inhibition of virus titers of progeny virus in supernatant at 37.5 uM measured after 72 hrs by CPE assay relative to control; format: functional; conditions: Severe acute respiratory syndrome coronavirus 2, Delta, Vero C1008
SARS-CoV-2 [22] = test: Antiviral activity against SARS-CoV-2 variant Omicron BA.3 infected in African green monkey Vero E6 cells assessed as reduction in virus titers of progeny virus in supernatant measured after 72 hrs by CPE assay; format: functional, organism-based; conditions: Severe acute respiratory syndrome coronavirus 2, Omicron BA.3, Vero C1008, 72 h
SARS-CoV-2 [23] = test: Antiviral activity against SARS-CoV-2 variant Delta infected in African green monkey Vero E6 cells assessed as reduction in virus-induced cytopathic effect at 37.5 uM preincubated with virus for 1 hr followed by infection with cells and measured after 72 hrs by microscopic analysis; format: functional, organism-based; conditions: Severe acute respiratory syndrome coronavirus 2, time 73.0 hrs
SARS-CoV-2 [24] = test: Antiviral activity against SARS-CoV-2 variant Omicron BA.2 infected in African green monkey Vero E6 cells assessed as reduction in viral replication at 37.5 uM measured at 72 hrs post-infection by qRT-PCR analysis; format: functional, organism-based; conditions: Severe acute respiratory syndrome coronavirus 2

C=C(C)[C@@H]1CCC(C)=C[C@H]1c1c(O)cc(CCCCC)c(C(=O)OC)c1O
inhibition at 37.5 µM (SARS-CoV-2 [1]): > 90% | Activity (SARS-CoV-2 [2]): Active | inhibition at 37.5 µM (SARS-CoV-2 [3]): > 90% | Activity (SARS-CoV-2 [4]): Active | IC50 (SARS-CoV-2 [5]): 19 µM | Activity (SARS-CoV-2 [6]): Active | Activity (SARS-CoV-2 [7]): Active | Activity (SARS-CoV-2 [8]): Active | IC50 (SARS-CoV-2 [9]): 15.9 µM | Activity (SARS-CoV-2 [10]): Active | IC50 (SARS-CoV-2 [11]): 15.5 µM | Activity (SARS-CoV-2 [12]): Active | IC50 (SARS-CoV-2 [13]): 18.6 µM | inhibition at 37.5 µM (SARS-CoV-2 [14]): > 90% | Activity (SARS-CoV-2 [15]): Active | Activity (SARS-CoV-2 [16]): Active | Activity (SARS-CoV-2 [17]): Active | inhibition at 37.5 µM (SARS-CoV-2 [18]): > 90% | IC50 (SARS-CoV-2 [19]): 16.6 µM | inhibition at 37.5 µM (SARS-CoV-2 [20]): > 90% | inhibition at 37.5 µM (SARS-CoV-2 [21]): > 90% | IC50 (SARS-CoV-2 [22]): 18.6 µM | Activity (SARS-CoV-2 [23]): Active | Activity (SARS-CoV-2 [24]): Active
